Measured values published in US10466259B2, “Synthetic antigen compositions for detecting anti-phosphatidylethanolamine antibodies” (Northwestern Univeristy, priority 2015, dated 2019).
“Also recorded” adds a separate entry of the source.

How the values were obtained:
Format in all cases: binding, human
[1] = system: cofactor-independent aPE IgM; test: ELISA of synthetic PE compositions, cofactor-independent aPE IgM; conditions: FIG. 9
Procedure: FIGS. 12A-B. Determination of PE coating amount and its impact on ELISA. A, B. determination of PE coating Amount. The indicated amount of PE was coated on 96 well plate and Elisa was performed. The relative OD405 value was deducted the normal serum value. The error bar represents SEM, n=3. A for egg PE, B for 20% 18:0 PE, 13.3% 18:1 PE, 39.9% 20:4 PE, and 26.6% 22:6 PE.
FIG. 13. A head-to-head comparison on the ELISA performance between egg PE and the synthetic formulation. The ELISA place was coated with 0.5 μg of egg PE or the kit formulation (20% 18:0 PE, 13.3% 18:1 PE, 39.9% 20:4 PE, and 26.6% 22:6 PE). OD405 was measured after ELISA and the relative OD value was subtracted from the normal human serum value. The net value was the mean of triplicates. A total 11 patient serum samples were tested for experiments.
Egg PE is currently the most widely used source of PE in ELISA tests for aPE.

[2] = system: cofactor-independent IgG aPE; test: ELISA with affinity-purified total IgG, cofactor-independent sample; conditions: FIG. 18, total IgG 200 μg/ml
Procedure: (§1) FIG. 18. aPE reactivity to egg PE, 20:4 PE and 18:1 PE using affinity-purified total IgG from a cofactor-dependent and a cofactor-independent IgG aPE patient plasma. For each ELISA test, the total IgG was used at a concentration of 200 μg/ml. […] The values are means of triplicates.
(§2) To minimize uncertainties caused by potential confounding factors in the serum and variations in immunoglobulin contents, the total IgG was isolated from representative aPE patient serum samples and was used to validate ELISA assays.
(§3) Microplates were coated using Egg PE, 20:4 PE or 18:1 PE for IgG aPE ELISA for normal human serum, a representative cofactor-dependent and cofactor-independent patient serum.

[3] = system: cofactor-dependent IgG aPE; test: ELISA with affinity-purified total IgG, cofactor-dependent samples
Procedure: as §1
The values are means of triplicates.
as §2, §3

[4] = system: cofactor-independent aPE IgG; test: ELISA of synthetic PE compositions, cofactor-independent aPE IgG
Procedure: FIG. 15. Head-to-head comparison between egg PE and synthetic 20:4 PE on the ELISA for cofactor-independent aPE IgG reactivity. The 96 well plate was coated with 1 mg of indicated PE per well, OD405 was measured after ELISA and the relative OD value was determined by subtracting the OD value of normal human serum from the patient sample. […] A total 14 patient serums were tested.

cofactor-independent aPE = test: aPE ELISA, cofactor-independent patient serum (Example 1); conditions: representative patient serum, antigen 1 to 400 μg/ml, FIG. 1
Procedure: For aPE ELISA assays (ref. 14; herein incorporated by reference in its entirety), microtiter plates (PolySorp, Thermo Fisher, Pittsburgh, USA) were coated with 50 μl of a solution containing various concentrations of egg yolk PE or equal molar amounts of DOPE in ethanol:chloroform (4:1) and dried by evaporation at room temperature (RT) in an extractor shielded from light. Each well was blocked for two hours at RT with 10% BSA in PBS followed by 50 μl of patient serum diluted 1/100 in PBS for one hour at RT. aPEs were assessed by using alkaline phosphatase conjugated polyclonal antibody (Ab) against either human IgG or IgM. The plates were washed three times with PBS after blocking, serum and conjugate incubations. After color development with paranitrophenyl phosphate as substrate, optical density at 405 nm was measured. OD values of pooled normal serum control were subtracted from those of patient serum samples measured with the same PE concentration.
In order to determine the optimal concentration of antigen in aPE ELISA, wells were coated with a series of concentrations of egg yolk PE ranging from 1 to 400 μg/ml aPEs or normal control serum were assessed with alkaline phosphatase conjugated polyclonal Ab to either IgG or IgM. […]

Compound	ELISA performance compared with egg PE ([1]; 0.5 mg PE per well, relative OD405 normalized with egg PE, serum from patient J083006H, n=3)	ELISA performance compared with other single PE species ([1]; unsaturated versus saturated, longer versus shorter fatty acid tails)	aPE reactivity of purified total IgG [2]	aPE reactivity of purified total IgG ([3]; FIG. 18, cofactor-dependent sample, total IgG 200 μg/ml)	aPE reactivity of purified total IgG ([3]; FIG. 19, two other cofactor-dependent aPE samples)	OD value relative to egg PE ([4]; FIG. 14, representative patient serum sample, 1 mg PE per well) [folds]	relative ELISA performance against egg PE ([4]; FIG. 14, representative patient serum sample, 1 mg PE per well, n=3)	head-to-head ELISA performance versus egg PE ([4]; FIG. 15, 14 patient serum samples, P=0.012)	improvement of aPE reactivity versus egg PE ([4]; FIG. 15, some samples) [%]	antigen concentration at which aPE reactivities peaked (cofactor-independent aPE)
CCCCC/C=C\C/C=C\C/C=C\C/C=C\CCCC(=O)OC[C@H](COP(=O)(O)OCCN)OC(=O)CCC/C=C\C/C=C\C/C=C\C/C=C\CCCCC [20:4 PE, arachidonic PE]	out-perform egg PE	better performance	significant reactivity; also recorded: prefer	not	not	~14	highest OD value	out-performed egg PE significantly	≥ 500	
CCCCCCCC/C=C\CCCCCCCC(=O)OC[C@H](COP(=O)(O)OCCN)OC(=O)CCCCCCC/C=C\CCCCCCCC [DOPE, dioleoyl PE]										around 5 μg/ml
